The values that follow are results of earlier work, collected in patent publication US20170112823A1, “COMPOSITIONS AND METHODS TO TREAT […] RELATED CONDITIONS” (priority 2015, published 2017).

For this series the following is noted: frequency of side effect.

With `CNCC[C@H](Oc1cccc2ccccc12)c1cccs1` [Cymbalta, Duloxetine], the “side effect: dizziness” value was 19%, the “side effect: dry mouth” value was 23%, the “side effect: headache” value is given as 20% and the “side effect: nausea” value is listed as 34%.

On to `CC(C)C[C@H](CN)CC(=O)O` [LYRICA, Pregabalin], for which the “side effects: very commonly, dizziness and drowsiness” value is above 10%.
